Calls of active or inactive are those of the source. How the calls were made is not given here.
Biological target: X-box-binding protein 1 (Homo sapiens) (UniProt P17861)
Test: XBP1 reporter suppression in cells – counter-screen, dose response (AID 504313);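 further: CHO cells carrying an XBP1 reporter stimulated with tunicamycin; potency is for inhibition of the tunicamycin-induced reporter signal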
Settings: XBP1 reporter cell assay, percent of control

| Compound | IC50 |
| --- | --- |
| O=S(=O)(Nc1cc(Sc2cccc3cccnc23)c(O)c2ccccc12)c1ccc(F)cc1 | 4.63 µM |
| CCOc1ccc2nc(NC(=O)CSc3nnnn3C3CCCCC3)sc2c1 | > 10 µM (inactive) |
| CC1CCN(c2nc3ccc(C(=O)O)cc3s2)CC1 | inactive |
| Cc1ccc2c(c1)c1c(n2CC(O)Cn2c(C)nc3ccccc32)CCCC1 (centres undefined) | inactive |
| CC(C)Cn1c(N)c(C(=O)COC(=O)CC23CC4CC(CC(C4)C2)C3)c(=O)n(C)c1=O | inactive |
| CCCCCn1c(=O)c(C(=O)Nc2nc3ccccc3[nH]2)c(O)c2ccccc21 | 4.25 µM |
| CCOc1cc(CNc2ccc(O)cc2)ccc1OCc1ccc(Cl)cc1Cl | inactive |
| COCCn1cnc2c(c1=O)c1nc3ccccc3nc1n2/N=C/c1cccc(OC)c1 | inactive |
| Cc1ccc(S(=O)(=O)CC#CCOC(=O)c2ccc([N+](=O)[O-])cc2)cc1 | inactive |
| Cc1cc(C2=NNC(=NC3CC3)SC2)c(C)n1-c1ccccc1F | < 0.16 µM (inactive) |
| CC1CCC(C(C)C)C(OC(=O)COC(=O)c2cc(O)ccc2N)C1 (centres undefined) | inactive |
| COc1oc(-c2ccc(Cl)cc2)nc1C(F)(F)F | inactive |
| CCCCCCn1c(=O)c(C(=O)N/N=C/c2cccc(F)c2)c(O)c2ccccc21 | inactive |
| O=C(OCn1ncc(Br)c(Br)c1=O)c1ccccc1Cl | 4.81 µM |
| Cc1cccc(NC(=O)CSc2nc(C)c(CC(=O)c3ccc(Br)cc3)c(C)c2C#N)c1C | inactive |
| O=C1C(Cl)=C(N2CCCCC2)C(=O)C(Cl)=C1c1cnc(N2CCCCC2)s1 | inactive |
| CCOC(=O)C1=C(C)NC(C)=C(C(=O)OCC)C1/C=C/c1ccccc1 | inactive |
| O=C(Nc1cc(N2CCOCC2)ncn1)NC1(C(F)(F)F)Oc2ccc(Cl)cc2O1 (centres undefined) | > 10 µM (inactive) |
| CN(CCCC[C@H](CNCc1ccc(-c2ccccc2)cc1)N1C[C@H](c2ccccc2)N(CCc2ccc(Cl)c(Cl)c2)C(=O)C1=O)Cc1ccc(-c2ccccc2)cc1 | inactive |
| Cc1ccc2[nH]c3c(c2c1)CN(C(=O)CN1CCN(c2cccc(C)c2C)CC1)CC3 | > 10 µM (inactive) |
| CN1C2CCC1/C(=C/c1ccccn1)C(=O)/C2=C\c1ccccn1 | 0.54 µM |
| CCCCC(CC)Cn1c2nc3ccccc3nc2c2c(=N)oc(C)nc21 (centres undefined) | > 10 µM (inactive) |
| CCC(C)c1ccc(O)c(NC(=O)c2cncc(Br)c2)c1 (centres undefined) | inactive |
| CCCCN=c1scc(-c2ccc3c(c2)NC(=O)CO3)n1N=C1CCCC1 | inactive |
| O=C(N=Nc1c(O)n(Cc2ccccc2)c2ccccc12)c1cc2ccccc2cc1O | inactive |

| Compound | IC50 |
| --- | --- |
| COc1ccc(/C=C2/C(=O)ON=C2c2ccccc2)cc1OC | > 10 µM (inactive) |
| CCN=C1NN=C(c2cc(C)n(Cc3ccco3)c2C)CS1 | < 0.16 µM |
| Cc1cccc(C)c1NC(=O)COc1ccccc1C(=O)Nc1ccc(Br)cn1 | > 10 µM (inactive) |
| Cc1ccc(-c2ccc(/C=C3\C(=O)ON=C3c3ccccc3)o2)c([N+](=O)[O-])c1 | > 10 µM (inactive) |
| COc1ccc(NC(=O)/C(Cl)=C(/Cl)S(=O)Cc2ccccc2Cl)cn1 (centres undefined) | 0.92 µM |
| CCCN1C=CC(=C2C(=O)c3ccccc3C2=O)C=C1 | inactive |
| CCOc1cc(C)c(-c2onc(C(F)(F)F)c2-c2csc(C)n2)c(O)c1 | inactive |
| COc1ccccc1NCC(O)COc1ccc(C(C)(C)C)cc1 (centres undefined) | inactive |
| COc1cc(C(=O)O/N=C2\C=CC(=O)C(C)=C2)cc(OC)c1OC | > 10 µM (inactive) |
| Cn1c(=O)c([N+](=O)[O-])c(Cl)c2ccccc21 | inactive |
| CC1CCC(C(C)C)C(OCC(O)CN2CCN(Cc3ccccc3)CC2)C1 (centres undefined) | > 10 µM (inactive) |
| FC(F)(F)c1cccc(NC(=S)N2CCN(c3cccc(C(F)(F)F)c3)CC2)c1 | 4.52 µM |
| FC(F)(F)c1cccc(CN2CCC(c3cc(-c4cccs4)n[nH]3)CC2)c1 | > 10 µM (inactive) |
| C=CS(=O)(=O)c1ccc(Oc2ccc(S(=O)(=O)C=C)cc2)cc1 | 1 µM |
| FC(F)(F)c1cccc(NC(=S)Nc2ccc(Cl)cc2Cl)c1 | > 10 µM (inactive) |
| CC(C)(C)c1cc(S(=O)(=O)CCc2ccccn2)cc(C(C)(C)C)c1F | inactive |
| COc1ccc(-c2nn(-c3ccccc3)cc2/C=N/NC(=O)c2ccc(Br)o2)cc1 | inactive |
| CCCCCCN=C(CC)c1c(O)n(CCCC)c(=O)[nH]c1=O | inactive |
| Nc1c(C(=O)Nc2nc3ccccc3s2)sc2nc(-c3cccs3)ccc12 | inactive |
| N#CC1=C(N)N2C(=C(C#N)C1c1ccc(Br)cc1)Nc1ccccc12 (centres undefined) | inactive |
| Cc1ccc(NC(=O)O/N=C/c2c(C)nn(C(C)(C)C)c2C)cc1Cl | < 0.16 µM |
| CCCNC(=O)c1nnsc1S(=O)(=O)c1ccc(Cl)cc1 | 0.87 µM |
| COC(=O)Oc1ccc(/C=N/NC(=O)CSCc2ccccc2Br)cc1OC | > 10 µM (inactive) |
| Cc1cc(C)c(S(=O)(=O)ON2C(=O)c3ccccc3C2=O)cc1C | > 10 µM (inactive) |
| O=C1C(C2=NC(c3ccccn3)C3C(=O)N(c4ccc(Cl)cc4Cl)C(=O)C23)=C(O)c2ccccc21 (centres undefined) | inactive |

| Compound | IC50 |
| --- | --- |
| CC(=O)NCc1ccc(C(=O)CCl)s1 | inactive |
| CC1CCN(S(=O)(=O)c2ccc3c(c2)C(=NO)c2cc(S(=O)(=O)N4CCC(C)CC4)ccc2-3)CC1 | 1.27 µM |
| NC(=O)CC(NC(=O)Cc1cccc2ccccc12)c1ccc(NCCOc2ccccc2)c([N+](=O)[O-])c1 (centres undefined) | > 10 µM (inactive) |
| CC(C)(C)c1nnc(N/N=C/c2cc(Br)ccc2O)n(N)c1=O | 6.02 µM |
| CCOC(=O)Cc1cc(-c2ccc(O)cc2)nc2ccc3ccccc3c12 | > 10 µM (inactive) |
| O=S(=O)(Nc1cc(Sc2ncn[nH]2)c(O)c2ccccc12)c1ccccc1 | inactive |
| O=C1c2ccccc2-c2onc3ccc(Oc4ccccc4)c1c23 | inactive |
| CCOC(=O)Cc1csc(NC(=O)NC2(C(F)(F)F)Oc3cc(Cl)c(Cl)cc3O2)n1 | inactive |
| CSc1nc2c(cnn2-c2ccc(C)c(C)c2)c(=O)[nH]1 | > 10 µM (inactive) |
| Cc1ccc(/C=C2\SC(=S)N(CCCC(=O)Nc3ccc(O)cc3)C2=O)cc1 | < 0.16 µM |
| O=C(Nc1cccc(Cl)c1Cl)c1cc(S(=O)(=O)NCCc2ccccc2)ccc1F | inactive |
| CS(=O)(=O)c1nc(-c2ccccc2)cc(C(F)(F)F)n1 | inactive |
| CCOc1cc(/C=N/NC(=O)COc2cccc(C)c2)ccc1OC(=O)c1cccs1 | > 10 µM (inactive) |
| COc1ccc(CC(=O)Nc2cccc(-c3nnc(-c4cccc(C)c4)o3)c2)cc1OC | inactive |
| O=C1c2ccccc2C(=O)C1c1nccc2ccccc12 | inactive |
| CC1=Nc2nc(N3CCCCC3)c(C#N)c3c4c(nc(c23)N1)N(c1ccc(C(C)C)cc1)C(=O)C4 | inactive |
| COc1cc(/C=C(\C#N)c2nc3ccccc3[nH]2)cc(Br)c1OCc1ccc(F)cc1 | inactive |
| FC(F)(F)c1ccc(/C=N/NC(=S)NC2CCCCC2)cc1 | > 10 µM (inactive) |
| CCOc1cccc(C(=O)Nc2cccc(-c3nnc(-c4ccc(C)cc4)o3)c2)c1 | > 10 µM (inactive) |
| O=S(=O)(N/N=C/c1ccc(Cl)cc1)c1ccc(Cc2ncc(C(F)(F)F)cc2Cl)s1 | inactive |
| CCc1ccc2c(c1)C(c1ccc([N+](=O)[O-])cc1)=NNC(c1ccc(C)cc1)=N2 | > 10 µM (inactive) |
| C=C1C(=O)O[C@H]2C[C@@H](C)[C@@H]3C=CC(=O)[C@@]3(C)C[C@H]12 | inactive |
| O=C(/C=C/c1ccccc1)Nc1cccc(C(=O)O)c1 | inactive |
| Cc1cc(C2=NNC(=NC3CC3)SC2)c(C)n1-c1ccccc1 | < 0.16 µM (inactive) |
| O=S1(=O)C=C(Sc2nc3ccccc3s2)c2ccccc21 | 2.74 µM |

| Compound | IC50 |
| --- | --- |
| C/C(N)=C(/C#N)C(=O)COC(=O)C1CCC(C(C)(C)C)CC1 (centres undefined) | > 10 µM (inactive) |
| NC(N)=N/N=C/c1cn(-c2ccccc2)nc1-c1cccs1 | > 10 µM (inactive) |
| COc1ccc(NS(=O)(=O)c2ccc(O)c(NC(=O)c3cc4c(C)nn(-c5ccc(F)cc5)c4s3)c2)cc1 | > 10 µM (inactive) |
| Fc1cc(F)c2nc(Nc3nc4cc5c(cc4s3)OCO5)sc2c1 | > 10 µM (inactive) |
| CCC(NC(=O)Nc1nnc(C(F)(F)F)s1)(C(F)(F)F)C(F)(F)F | 2 µM |
| COc1ccccc1-c1nnc(NC(=O)c2ccc(S(=O)(=O)N(C)Cc3ccccc3)cc2)o1 | inactive |
| COC(=O)c1cc(NC(=S)Nc2cc(Cl)cc(Cl)c2)cc(C(=O)OC)c1 | > 10 µM (inactive) |
| O=C(CCl)N1CCN2C(=O)c3ccccc3C12c1ccc(Cl)cc1 (centres undefined) | inactive |
| CCOC(=O)C1=C(c2ccc(OC)cc2)C(=O)c2ccccc2C1=O | inactive |
| C/C(=N\N=C1\NC(=O)C(CC(=O)Nc2ccc(C)c(Cl)c2)S1)C(C)(C)C (centres undefined) | 4.96 µM |
| O=S(=O)(NCC(Nc1ccc(Cl)cc1)c1ccccc1)c1ccc(Cl)cc1 (centres undefined) | > 10 µM (inactive) |
| CCOc1cccc(CN2CCN(c3cccc(C(F)(F)F)c3)CC2)c1O | > 10 µM (inactive) |
| COc1ccc(NC(=S)NC(NC(=O)/C=C/c2ccccc2)C(Cl)(Cl)Cl)cc1 (centres undefined) | > 10 µM (inactive) |
| COc1ccc(Cn2c(SCc3ccccc3C)nc3cc(OC)c(OC)cc3c2=N)cc1 | > 10 µM (inactive) |
| COC(=O)C[C@]1(C(=O)OC)CN(C#N)N(c2ccc(Cl)cc2)C12c1ccccc1-c1ccccc12 | 4.38 µM |
| CC1C/C(=C/c2ccccn2)C(=O)/C(=C/c2ccccn2)C1 (centres undefined) | 2.68 µM |
| CC(C)(C)c1ccc(O)c(N=Cc2cc(Br)ccc2O)c1 | inactive |
| CCOC(=O)C(NC(=O)Nc1cccc(C)n1)(OCC(F)(F)F)C(F)(F)F (centres undefined) | inactive |
| CC(C)(C)OC(=O)N[C@@H](Cc1ccccc1)c1nnc(S(=O)(=O)Cc2ccccc2)o1 | inactive |
| CC(C)(C)c1ccc(Oc2ccc(N)cc2)cc1 | < 0.16 µM |
| O=C1C=CC(O)(c2cc(=O)c3c(O)cc(O)cc3o2)C=C1 | 3.84 µM |
| CC(C)(C)OC(=O)NCCc1nnc(S(=O)(=O)Cc2ccc(Cl)cc2Cl)o1 | 4.44 µM |
| O=C(NC(c1ccccc1)c1cc(Cl)c2cccnc2c1O)c1cccnc1 (centres undefined) | inactive |
| CCOc1ccc(-c2cc(CCCC(=O)NCc3ccc(C)cc3)no2)cc1 | 0.29 µM |
